Columns and labels:
Hepatotoxicity [1] = test system: Hepatotoxicity;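 for HepSE bilirubinemia: bilirubinemia hepatic side effect score drawn from the DILIps training data, a prediction system for drug-induced liver injury; call rule not given here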;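 for HepSE cholecystitis: Cholecystitis-related hepatic side effect score drawn from the DILIps (drug-induced liver injury prediction) training data set; call rule not given here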;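 for HepSE cholelithiasis: hepatic side effect score for cholelithiasis, drawn from the DILIps training data for predicting drug-induced liver injury; call rule not given here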;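 for HepSE cirrhosis: cirrhosis hepatic side effect score taken from the DILIps (drug-induced liver injury prediction) training set; call rule not given here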;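 for HepSE elevated liver function tests: hepatic side effect score for raised liver function tests, as recorded in the DILIps training set used for predicting drug-induced liver injury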; for HepSE hepatic failure: call rule not given here;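 for HepSE hepatomegaly: hepatic side effect score for hepatomegaly, taken from the training set of the DILIps drug-induced liver injury prediction system; call rule not given here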
Hepatotoxicity [2] = test system: Hepatotoxicity; remark: listed apart in the source;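 for HepSE bilirubinemia: bilirubinemia hepatic side effect score drawn from the DILIps training data, a prediction system for drug-induced liver injury; call rule not given here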;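 for HepSE cholecystitis: Cholecystitis-related hepatic side effect score drawn from the DILIps (drug-induced liver injury prediction) training data set; call rule not given here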;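 for HepSE cholelithiasis: hepatic side effect score for cholelithiasis, drawn from the DILIps training data for predicting drug-induced liver injury; call rule not given here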;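 for HepSE cirrhosis: cirrhosis hepatic side effect score taken from the DILIps (drug-induced liver injury prediction) training set; call rule not given here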;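 for HepSE elevated liver function tests: hepatic side effect score for raised liver function tests, as recorded in the DILIps training set used for predicting drug-induced liver injury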; for HepSE hepatic failure: call rule not given here
Hepatotoxicity [3] = test system: Hepatotoxicity; remark: listed apart in the source;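 for HepSE bilirubinemia: bilirubinemia hepatic side effect score drawn from the DILIps training data, a prediction system for drug-induced liver injury; call rule not given here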;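 for HepSE cholecystitis: Cholecystitis-related hepatic side effect score drawn from the DILIps (drug-induced liver injury prediction) training data set; call rule not given here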;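 for HepSE cholelithiasis: hepatic side effect score for cholelithiasis, drawn from the DILIps training data for predicting drug-induced liver injury; call rule not given here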;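 for HepSE cirrhosis: cirrhosis hepatic side effect score taken from the DILIps (drug-induced liver injury prediction) training set; call rule not given here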;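 for HepSE elevated liver function tests: hepatic side effect score for raised liver function tests, as recorded in the DILIps training set used for predicting drug-induced liver injury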; for HepSE hepatic failure: call rule not given here
Hepatotoxicity [4] = test system: Hepatotoxicity; remark: listed apart in the source;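 for HepSE bilirubinemia: bilirubinemia hepatic side effect score drawn from the DILIps training data, a prediction system for drug-induced liver injury; call rule not given here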;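 for HepSE cholecystitis: Cholecystitis-related hepatic side effect score drawn from the DILIps (drug-induced liver injury prediction) training data set; call rule not given here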;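 for HepSE cholelithiasis: hepatic side effect score for cholelithiasis, drawn from the DILIps training data for predicting drug-induced liver injury; call rule not given here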;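 for HepSE cirrhosis: cirrhosis hepatic side effect score taken from the DILIps (drug-induced liver injury prediction) training set; call rule not given here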;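 for HepSE elevated liver function tests: hepatic side effect score for raised liver function tests, as recorded in the DILIps training set used for predicting drug-induced liver injury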; for HepSE hepatic failure: call rule not given here
Hepatotoxicity [5] = test system: Hepatotoxicity; remark: listed apart in the source; for HepSE hepatic failure: call rule not given here
Hepatotoxicity [6] = test system: Hepatotoxicity; remark: listed apart in the source; for HepSE hepatic failure: call rule not given here
Hepatotoxicity [7] = test system: Hepatotoxicity; remark: listed apart in the source
Hepatotoxicity [8] = test system: Hepatotoxicity; remark: listed apart in the source
Hepatotoxicity [9] = test system: Hepatotoxicity; remark: listed apart in the source
Hepatotoxicity [10] = test system: Hepatotoxicity; remark: listed apart in the source
Hepatotoxicity [11] = test system: Hepatotoxicity; remark: listed apart in the source
Hepatotoxicity [12] = test system: Hepatotoxicity; remark: listed apart in the source
Hepatotoxicity [13] = test system: Hepatotoxicity; remark: listed apart in the source
Hepatotoxicity [14] = test system: Hepatotoxicity; remark: listed apart in the source

Compound	HepSE_bilirubinemia (Hepatotoxicity [1])	HepSE_cholecystitis (Hepatotoxicity [2])	HepSE_cholelithiasis (Hepatotoxicity [3])	HepSE_cirrhosis (Hepatotoxicity [4])	HepSE_elevated liver function tests (Hepatotoxicity [5])	HepSE_hepatic failure (Hepatotoxicity [6])	HepSE_hepatic necrosis (Hepatotoxicity [7])	HepSE_hepatitis (Hepatotoxicity [8])	HepSE_hepatomegaly (Hepatotoxicity [9])	HepSE_jaundice (Hepatotoxicity [10])	HepSE_liver disease (Hepatotoxicity [11])	HepSE_liver fatty (Hepatotoxicity [12])	HepSE_liver function tests abnormal (Hepatotoxicity [13])	HepSE_Combined Scores (Hepatotoxicity [14])
CCCCN1CCCCC1C(=O)Nc1c(C)cccc1C (stereo unspecified) [BUPIVACAINE]	0	0	0	0	0	0	0	0	0	0	1	0	0	1
CO[C@]12CC[C@@]3(C[C@@H]1[C@](C)(O)C(C)(C)C)[C@H]1Cc4ccc(O)c5c4[C@@]3(CCN1CC1CC1)[C@H]2O5 [BUPRENORPHINE]	0	0	0	0	0	0	0	0	0	0	0	0	0	0
CC(NC(C)(C)C)C(=O)c1cccc(Cl)c1 (stereo unspecified) [BUPROPION]	0	0	0	0	0	0	0	1	0	1	0	0	0	2
CCNC(=O)[C@@H]1CCCN1C(=O)[C@H](CCCNC(=N)N)NC(=O)[C@H](CC(C)C)NC(=O)[C@@H](COC(C)(C)C)NC(=O)[C@H](Cc1ccc(O)cc1)NC(=O)[C@H](CO)NC(=O)[C@H](Cc1c[nH]c2ccccc12)NC(=O)[C@H](Cc1cnc[nH]1)NC(=O)[C@@H]1CCC(=O)N1 [BUSERELIN]	0	0	0	0	0	0	0	0	0	0	0	0	0	0
O=C1CC2(CCCC2)CC(=O)N1CCCCN1CCN(c2ncccn2)CC1 [BUSPIRONE]	0	0	0	0	0	0	0	0	0	0	0	0	0	0
CS(=O)(=O)OCCCCOS(C)(=O)=O [BUSULFAN]	1	0	0	0	0	0	0	1	1	1	0	0	0	4
CN(Cc1ccc(C(C)(C)C)cc1)Cc1cccc2ccccc12 [BUTENAFINE]	0	0	0	0	0	0	0	0	0	0	0	0	0	0
Clc1ccc(CCC(Cn2ccnc2)Sc2c(Cl)cccc2Cl)cc1 (stereo unspecified) [BUTOCONAZOLE]	0	0	0	0	0	0	0	0	0	0	0	0	0	0
Oc1ccc2c(c1)[C@@]13CCCC[C@@]1(O)[C@@H](C2)N(CC1CCC1)CC3 [BUTORPHANOL]	0	0	0	0	0	0	0	0	0	0	0	0	0	0

Source: ChEMBL document CHEMBL1909294, “Translating clinical findings into knowledge in drug safety evaluation--drug induced liver injury prediction system (DILIps)” (PLoS Comput Biol, 2011)
